Source: patent publication US9302999B2, “Substituted triazoles as herbicides” (E. I. DU PONT DE NEMOURS AND COMPANY, priority 2012, dated 2016)

What was measured:
Assay type in all cases: in vivo
rice (Oryza sativa) = assay: Test B flooded paddy: rice; conditions: Flood; 250 g ai/ha; applied to paddy water at 2-leaf stage; visually evaluated after 13 to 15 days
Protocol: (§1) Seeds selected from rice (Oryza sativa), sedge, umbrella (small-flower umbrella sedge Cyperus difformis), ducksalad (Heteranthera limosa), and barnyardgrass (Echinochloa crus-galli) were grown to the 2-leaf stage for testing. At time of treatment, test pots were flooded to 3 cm above the soil surface, treated by application of test compounds directly to the paddy water, and then maintained at that water depth for the duration of the test.
(§2) Treated plants and controls were maintained in a greenhouse for 13 to 15 days, after which time all species were compared to controls and visually evaluated. Plant response ratings, summarized in Table B, are based on a scale of 0 to 100 where 0 is no effect and 100 is complete control. A dash (-) response means no test result.

[1] = test system: barnyardgrass (Echinochloa crus-galli); assay: Test A pre-/postemergence: barnyardgrass; conditions: for Barnyardgrass plant response rating: Postemergence; for Plant response rating, Barnyardgrass: Preemergence
Procedure, shortened: (§3)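 Plants in loam–sand blend were treated with test chemicals in non-phytotoxic solvent with surfactant, either as preemergence directed soil spray or postemergence at 2–10 cm, one- to two-leaf stage. After about ten days in greenhouse, injury was rated visually against untreated controls on a 0–100 scale (100 = complete control).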

[2] = test system: wheat (Triticum aestivum); assay: Test A pre-/postemergence: wheat; conditions: for Wheat plant response rating: Postemergence; for Plant response rating, Wheat: Preemergence
Procedure, shortened: as §3

[3] = test system: velvetleaf (Abutilon theophrasti); assay: Test A pre-/postemergence: velvetleaf; conditions: for Velvetleaf plant response rating: Postemergence; for Plant response rating, Velvetleaf: Preemergence
Procedure, shortened: as §3

[4] = test system: ducksalad (Heteranthera limosa); assay: Test B flooded paddy: ducksalad; conditions: Flood; 250 g ai/ha; applied to paddy water at 2-leaf stage; visually evaluated after 13 to 15 days
Protocol: as §1, §2

[5] = test system: crabgrass, large (large crabgrass, Digitaria sanguinalis); assay: Test A pre-/postemergence: crabgrass, large; conditions: for Crabgrass, Large plant response rating: Postemergence; for Plant response rating, Crabgrass, Large: Preemergence
Procedure, shortened: as §3

[6] = test system: barnyardgrass (Echinochloa crus-galli); assay: Test B flooded paddy: barnyardgrass; conditions: Flood; 250 g ai/ha; applied to paddy water at 2-leaf stage; visually evaluated after 13 to 15 days
Protocol: as §1, §2

[7] = test system: sedge, umbrella (small-flower umbrella sedge Cyperus difformis); assay: Test B flooded paddy: sedge, umbrella; conditions: Flood; 250 g ai/ha; applied to paddy water at 2-leaf stage; visually evaluated after 13 to 15 days
Protocol: as §1, §2

[8] = test system: foxtail, giant (giant foxtail, Setaria faberii); assay: Test A pre-/postemergence: foxtail, giant; conditions: for Foxtail, Giant plant response rating: Postemergence; for Plant response rating, Foxtail, Giant: Preemergence
Procedure, shortened: as §3

corn (Zea mays) = assay: Test A pre-/postemergence: corn; conditions: for Corn plant response rating: Postemergence; for Plant response rating, Corn: Preemergence
Procedure, shortened: as §3

[9] = test system: morningglory (Ipomoea spp.); assay: Test A pre-/postemergence: morningglory; conditions: for Morningglory plant response rating: Postemergence; for Plant response rating, Morningglory: Preemergence
Procedure, shortened: as §3

[10] = test system: pigweed (Amaranthus retroflexus); assay: Test A pre-/postemergence: pigweed; conditions: for Pigweed plant response rating: Postemergence; for Plant response rating, Pigweed: Preemergence
Procedure, shortened: as §3

[11] = 125 g ai/ha, 0 to 100 scale, 0 is no effect, 100 is complete control
[12] = 500 g ai/ha, visual rating on 0 to 100 scale (0 no effect, 100 complete control), approximately ten days
[13] = 125 g ai/ha, 0 to 100 scale (0 no effect, 100 complete control)
[14] = 500 g ai/ha, 0 to 100 scale, 0 is no effect, 100 is complete control

Structure (SMILES)	Plant response rating, Rice (0 to 100 scale, 0 is no effect, 100 is complete control) (rice (Oryza sativa))	Barnyardgrass plant response rating [1, 11]	Barnyardgrass plant response rating [1, 12]	Plant response rating, Barnyardgrass [1, 13]	Plant response rating, Barnyardgrass [1, 14]	Wheat plant response rating [2, 11]	Wheat plant response rating [2, 12]	Plant response rating, Wheat [2, 13]	Plant response rating, Wheat [2, 14]	Velvetleaf plant response rating [3, 11]	Velvetleaf plant response rating [3, 12]	Plant response rating, Velvetleaf [3, 13]	Plant response rating, Velvetleaf [3, 14]	Plant response rating, Ducksalad (0 to 100 scale, 0 is no effect, 100 is complete control) [4]	Crabgrass, Large plant response rating [5, 11]	Crabgrass, Large plant response rating [5, 12]	Plant response rating, Crabgrass, Large [5, 13]	Plant response rating, Crabgrass, Large [5, 14]	Plant response rating, Barnyardgrass (0 to 100 scale, 0 is no effect, 100 is complete control) [6]	Plant response rating, Sedge, Umbrella (0 to 100 scale, 0 is no effect, 100 is complete control) [7]	also measured
COc1nn(-c2ccc(F)cc2)nc1C(=O)c1ccnc(C(F)(F)F)c1 [Compound 24]	0	0	20	0	0	10	10	0	0	20	20	0	0	0	10	20	0	20	0	0	Foxtail, Giant plant response rating [8, 11]: 10; Foxtail, Giant plant response rating [8, 12]: 20; Plant response rating, Foxtail, Giant [8, 13]: 20; Plant response rating, Foxtail, Giant [8, 14]: 70; Corn plant response rating (corn (Zea mays); [11]): 10; Corn plant response rating (corn (Zea mays); [12]): 20; Plant response rating, Corn (corn (Zea mays); [13]): 0; Plant response rating, Corn (corn (Zea mays); [14]): 0; Morningglory plant response rating [9, 11]: 20; Morningglory plant response rating [9, 12]: 20; Plant response rating, Morningglory [9, 13]: 0; Plant response rating, Morningglory [9, 14]: 0; Pigweed plant response rating [10, 11]: 40; Pigweed plant response rating [10, 12]: 90; Plant response rating, Pigweed [10, 13]: 0; Plant response rating, Pigweed [10, 14]: 20
CSc1nn(-c2ccc(F)cc2)nc1Cc1ccnc(C(F)(F)F)c1 [Compound 27]	10	0	20	0	10	20	40	0	0	40	50	0	0	50	30	40	20	40	20	20	Foxtail, Giant plant response rating [8, 11]: 30; Foxtail, Giant plant response rating [8, 12]: 40; Plant response rating, Foxtail, Giant [8, 13]: 10; Plant response rating, Foxtail, Giant [8, 14]: 80; Corn plant response rating (corn (Zea mays); [11]): 20; Corn plant response rating (corn (Zea mays); [12]): 20; Plant response rating, Corn (corn (Zea mays); [13]): 0; Plant response rating, Corn (corn (Zea mays); [14]): 0; Morningglory plant response rating [9, 11]: 40; Morningglory plant response rating [9, 12]: 90; Plant response rating, Morningglory [9, 13]: 0; Plant response rating, Morningglory [9, 14]: 0; Pigweed plant response rating [10, 11]: 90; Pigweed plant response rating [10, 12]: 100; Plant response rating, Pigweed [10, 13]: 0; Plant response rating, Pigweed [10, 14]: 80
